Measurements as given in ChEMBL document CHEMBL1139896, “Synthesis, characterization, and estrogen receptor binding affinity of flavone-, indole-, and furan-estradiol conjugates” (Bioorg Med Chem Lett, 2007).

target: T1, Estrogen receptor (Homo sapiens, UniProt P03372)
T1 sequence (P03372 whole entry): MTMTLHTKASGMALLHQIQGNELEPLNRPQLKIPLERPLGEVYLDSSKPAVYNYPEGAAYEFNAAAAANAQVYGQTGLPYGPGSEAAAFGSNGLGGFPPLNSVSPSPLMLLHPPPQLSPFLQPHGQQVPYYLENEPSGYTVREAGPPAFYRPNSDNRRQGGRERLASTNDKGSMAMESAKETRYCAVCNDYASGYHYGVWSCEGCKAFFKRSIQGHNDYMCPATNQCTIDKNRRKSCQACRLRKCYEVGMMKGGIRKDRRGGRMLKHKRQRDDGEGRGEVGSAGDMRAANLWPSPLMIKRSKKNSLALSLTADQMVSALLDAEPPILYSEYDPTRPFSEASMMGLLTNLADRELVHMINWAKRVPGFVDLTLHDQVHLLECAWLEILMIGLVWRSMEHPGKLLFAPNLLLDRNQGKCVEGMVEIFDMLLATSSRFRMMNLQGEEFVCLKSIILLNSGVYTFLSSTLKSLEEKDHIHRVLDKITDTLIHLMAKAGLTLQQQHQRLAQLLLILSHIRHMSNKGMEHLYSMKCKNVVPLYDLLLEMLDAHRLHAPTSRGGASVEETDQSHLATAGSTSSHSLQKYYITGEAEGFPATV
Description: Binding affinity to ERalpha

| SMILES | Ki [nM] |
| --- | --- |
| C[C@]12CC[C@@H]3c4ccc(O)cc4CC[C@H]3[C@@H]1CC[C@@]2(O)C#Cc1cccc2c(=O)cc(-c3ccccc3)oc12 | 100 |
| C[C@]12CC[C@@H]3c4ccc(O)cc4CC[C@H]3[C@@H]1CC[C@@]2(O)C#CCCCCC#Cc1c(-c2ccccc2)oc2ccccc2c1=O | 63100 |
| COc1ccccc1-c1[nH]c2ccccc2c1C#C[C@]1(O)CC[C@H]2[C@@H]3CCc4cc(O)ccc4[C@H]3CC[C@@]21C | 35 |
| C[C@]12CC[C@@H]3c4ccc(O)cc4CC[C@H]3[C@@H]1CC[C@@]2(O)C#Cc1c(-c2ccccc2O)[nH]c2ccccc12 | 75 |
| Cc1ccc(S(=O)(=O)Oc2ccc3c(C#C[C@]4(O)CC[C@H]5[C@@H]6CCc7cc(O)ccc7[C@H]6CC[C@@]54C)c(-c4ccc(OCc5ccccc5)cc4)oc3c2)cc1 | 332 |
| C[C@]12CC[C@@H]3c4ccc(O)cc4CC[C@H]3[C@@H]1CC[C@@]2(O)C#CCCCCC#Cc1cccc2c(=O)cc(-c3ccccc3)oc12 | 382 |
| Cc1ccc(S(=O)(=O)Oc2ccc3c(C#CCCCCC#C[C@]4(O)CC[C@H]5[C@@H]6CCc7cc(O)ccc7[C@H]6CC[C@@]54C)c(-c4ccc(OCc5ccccc5)cc4)oc3c2)cc1 | 17900 |
| C[C@]12CC[C@@H]3c4ccc(O)cc4CC[C@H]3[C@@H]1CC[C@@]2(O)C#Cc1c(-c2ccccc2)oc2ccccc2c1=O | 37 |
